Earlier results as cited in patent US20060287500A1, “Method for synthesis of C2-symmetric diamino diol mediated by titanium complexes” (priority 2005, published 2006).

Experiments:
FIV protease = FIV protease (Feline immunodeficiency virus, UniProt P16088); conditions: in vitro
HIV protease = HIV protease (Human immunodeficiency virus type 1 group M subtype B, UniProt P04585); conditions: in vitro
[1] = test system: HIV, SIV, FIV and many of the 150 different clinical mutant strains
FIV = conditions: feline model

CC(C)[C@H](NC(=O)[C@H](C)NC(=O)OCc1ccccc1)C(=O)N[C@@H](Cc1ccccc1)[C@@H](O)[C@H](O)[C@H](Cc1ccccc1)NC(=O)[C@@H](NC(=O)[C@H](C)NC(=O)OCc1ccccc1)C(C)C [TL-3]
Ki (FIV protease): 41 nM
Ki (HIV protease): 1.5 nM
effectiveness against HIV, SIV, FIV and clinical mutant strains [1]: equally effective
drug resistance developing against the inhibitor (FIV): No evidence for drug resistance developing
